# In patent US9448237B2, “Modified tyrosine amino acids, peptides containing them, and their use for detecting hydrolase enzyme activity” (PAMGENE B.V., priority 2011, dated 2016):
# Assays:
# [1] = system: phosphatase; settings: FIG. 5
# Description: A Tris buffer (25 μL, 50 mM, pH 7.4, modified with 0.5 mM DTT) was used to dissolve the appropriate phosphatase (20-100 ng) together with BSA (0.25 μL, 10 mg/mL), anti-nitrotyrosine antibody (0.5 μL, 0.5 mg/mL in PBS pH 7.4), FITC-goat-anti-mouse antibody (0.5 μL, 4 μg/mL). The resulting mixture was added to Pamchip® microarrays and the fluorescence imaged in real time using a Pamstation® PS12 instrument. The images were analyzed using the Bionavigator software package (Pamgene International BV, 's-Hertogenbosch, The Netherlands).
# To the mixture described in Example 14, a 1 μL amount of sodium vanadate solutions with appropriate concentration was added.
# [2] = biological target: phosphatase PTP1B (Homo sapiens, UniProt P18031); settings: spotted with 1 mM peptide solution; one hour incubation with PTP1B in Tris-buffer containing DTT; FIG. 7
# Description: After one hour incubation with phosphatase PTP1B in a Tris-buffer containing DTT, the microarray was washed and treated with a solution of PY20 antibody. […] The left image: not treated with PTP1B. The right image: treated with PTP1B.
# phosphatase PTP1B, sequence (P18031 whole entry): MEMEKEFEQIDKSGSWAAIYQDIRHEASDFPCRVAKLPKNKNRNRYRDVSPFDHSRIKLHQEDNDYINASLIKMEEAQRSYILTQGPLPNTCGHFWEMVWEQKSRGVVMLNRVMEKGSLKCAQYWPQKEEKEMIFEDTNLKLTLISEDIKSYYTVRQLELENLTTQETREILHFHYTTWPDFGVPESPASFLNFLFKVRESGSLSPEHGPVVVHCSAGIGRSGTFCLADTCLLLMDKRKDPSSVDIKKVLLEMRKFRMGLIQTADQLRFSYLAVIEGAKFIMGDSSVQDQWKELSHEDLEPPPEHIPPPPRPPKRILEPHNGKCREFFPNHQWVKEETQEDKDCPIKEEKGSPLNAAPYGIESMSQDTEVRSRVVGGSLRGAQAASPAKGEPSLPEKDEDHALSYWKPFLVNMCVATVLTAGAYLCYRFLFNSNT
Substance,inhibition of the phosphatase enzyme activity [1],recognition as substrate and dephosphorylation by phosphatase [2]
sodium ortho-vanadate,concentration dependent inhibition,–
H-CDADE-(3-Br-pY)-LIPQQG-NH2 [3-bromo-phosphotyrosine peptide],–,recognized by the phosphatase and dephosphorylated equally well
